Experimental findings from PMC10411625, “Rationally designed stapled peptides allosterically inhibit PTBP1–RNA-binding” (Chemical Science, 2023) are described below.

Data set [1] is described as follows: Peptide stability in HEK293T cell lysate. The settings on record: human, HEK293T lysate 1 mg/ml in PBS, 1 mM peptide, 37 °C, HPLC/LCMS peak area normalized to ethylparaben standard, read-out: peptide still intact after 24 hours in cell lysate. The format is in vitro ADME. The source says:
Stapled peptides have been reported to be able to pass cell membranes with high efficiency, but their cell permeability is dependent on the peptide sequence and the position of the staple.[41] To evaluate whether the α3-helix derived peptide is cell permeable, we used azidolysine derivatized variants of P-6 and P-6S (P-6-Az and P-6S-Az) and used them in the NanoClick assay.[60] In this assay cells are transfected to express a NanoLuc–HaloTag fusion protein followed by treatment with a dibenzoazacyclooctyne reagent modified with a chloroalkane (DIBAC–CA) that covalently modifies the HaloTag protein. When an azide modified NanoBRET acceptor (NB618-Az) is added, it will undergo strain promoted azide–alkyne cycloaddition (SPAAC) with the DIBAC–CA placing the acceptor in the proximity of the NanoLuc protein leading to an observable BRET signal. […] The SPAAC reaction only happens if the peptide is able to reach the cytosol and the assay therefore provides a read-out of cell-permeability. […]
Peptide stability was measured in HEK293T lysates. […]
The samples were chilled on ice for 15 min and insoluble material was removed by centrifugation (16873 x g, 4 °C, 10 min). The supernatant was analysed by LCMS with a gradient of H2O (0.1% TFA) and ACN (0.1% TFA) from 5 to 95 % over 20 min. […]

In the next data set the target is T1, hnRNP A2/B1 (Homo sapiens, UniProt P22626).
T1 construct: (1-251); made in house; host or cells: E. coli BL21 (DE3) RIPL
T1 sequence (P22626 1-251, species assumed): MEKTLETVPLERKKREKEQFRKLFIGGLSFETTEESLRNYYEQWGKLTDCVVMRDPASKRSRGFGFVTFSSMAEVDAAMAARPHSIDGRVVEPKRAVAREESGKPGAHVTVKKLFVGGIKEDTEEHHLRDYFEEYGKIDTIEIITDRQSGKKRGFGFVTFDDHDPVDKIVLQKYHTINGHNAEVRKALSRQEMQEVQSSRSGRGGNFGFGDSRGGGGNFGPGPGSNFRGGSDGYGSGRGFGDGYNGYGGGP
Kind of data set: Competitive fluorescence polarization assay, hnRNP A2/B1 and RNA-AB. In kind it is binding. As to conditions: Fig. 3C; competitive FP, 10 nM hnRNPA2/B1, 1 nM Cy5-labeled RNA-AB, 25 mM HEPES pH 8.0; read-out: P-6 Ki, construct hnRNP A2/B1. An excerpt:
(§1) The RRM domain is the most commonly occurring RNA-binding domain in the proteome making it challenging to find selective inhibitors.[23,46] Although various ligands have been described, their selectivity is rarely investigated, with an exception for the Musashi-1 inhibitor Ro 08-2750.[47–58] To investigate whether P-6 has an effect on the RNA-binding of other dual RRM containing proteins, we evaluated its inhibitory potency against another hnRNP protein (hnRNP A2/B1) as well as a splicing factor from the SR-protein class (SRSF1).[1] We evaluated P-6 in competitive fluorescence polarization assays using previously described RNAs recognized by these proteins.[59] […]
(§2) performed in FP bufferPTBP1. […]
(§3) serially diluted in the same buffer. […]
(§4) a final concentration of 10 nM probe. […]
(§5) the settings mentioned previously.
(§6) Fluorescence polarization assay with SRSF1
(§7) Fluorescence polarization was
(§8) Fluorescence polarization assay with hnRNPA2/B1
(§9) For the competitive assay 10 nM
(§10) Microscale thermophoresis […]
(§11) afterwards serially diluted into FP buffer.
(§12) The data was evaluated at […]
(§13) experiments were performed in duplicates.
(§14) Circular Dichroism Spectroscopy […]
(§15) secondary structure analysis with a reference data set. For experiments with PTBP1 constructs the […]
(In general: Fluorescence polarisation rises when a labelled molecule tumbles more slowly, as on binding a larger partner.)

For a further data set, the target named is T2, SRSF1 (Homo sapiens, UniProt Q07955).
T2 construct: SRSF1-RRM12 (1-195); His tag (cleaved yes); made in house; host or cells: E. coli BL21 (DE3)
T2 sequence (Q07955 1-195, species assumed): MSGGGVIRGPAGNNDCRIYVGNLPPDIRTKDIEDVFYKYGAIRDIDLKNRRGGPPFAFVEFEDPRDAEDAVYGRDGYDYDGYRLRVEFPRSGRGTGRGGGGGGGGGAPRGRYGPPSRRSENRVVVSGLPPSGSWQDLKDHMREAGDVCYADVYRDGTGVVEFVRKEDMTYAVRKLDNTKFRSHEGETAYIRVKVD
The data set can be described thus: Competitive fluorescence polarization assay, SRSF1 and RNA-S. The settings on record: Fig. 3C; competitive FP, 400 nM SRSF1, 1 nM Cy5-labeled RNA-S, pH 7.0; read-out: P-6 Ki, construct SRSF1. In kind it is binding.
From the text: as §1, §2, §3, §4, §5, §6, §7, §8, §9, §10, §11, §12, §13, §14, §15

pKi: −log10 of the molar value.

Turning to `CC(=O)N[C@@H](CC(N)=O)C(=O)N[C@@H](CCC(N)=O)C(=O)N[C@@]1(C)CCCCCCCC[C@@](C)(C(=O)N[C@@H](C)C(=O)N[C@@H](CC(C)C)C(=O)N[C@@H](CCC(N)=O)C(=O)N[C@@H](C)C(=O)N[C@H](C(=O)N[C@@H](CC(N)=O)C(N)=O)C(C)C)NC(=O)[C@H](CCC(N)=O)NC(=O)[C@H](C)NC(=O)[C@H](CCCNC(=N)N)NC1=O` [Peptide P-2], the remaining at 24 h, 1 mM in data set [1] came out at 12%.

Consider `CC(=O)N[C@@H](CC(N)=O)C(=O)N[C@@H](CCC(N)=O)C(=O)N[C@@]1(C)CCCC=CCCCC2(CCCC=CCCC[C@](C)(C(=O)N[C@H](C(=O)N[C@@H](CC(N)=O)C(N)=O)C(C)C)NC(=O)[C@H](CCC(N)=O)NC(=O)[C@H](CC(C)C)NC(=O)[C@H](C)NC2=O)NC(=O)[C@H](CCC(N)=O)NC(=O)[C@H](C)NC(=O)[C@H](CCCNC(=N)N)NC1=O` (stereo partly shown) [Peptide P-6], for which the pKi at hnRNP A2/B1 and on SRSF1 was < 3.00 throughout. Further, in data set [1], the remaining at 24 h, 1 mM is 43%.
